{"source": "patent US7235583B1", "about": "“Fatty acid-anticancer conjugates and uses thereof” (Luitpold Pharmaceuticals, Inc.,, priority 1999, dated 2007)", "type_in_all_cases": "in vivo", "key": {"[1]": {"system": "mouse lung tumor line M (Madison) 109", "assay": "Taxoprexin and paclitaxel against M 109 lung carcinoma in mice, treatment from day 5 (tumors 300 mg)", "conditions": "tumors 300 mg at start", "procedure": "Syngeneic mice were injected with mouse lung tumor line M (Madison) 109 sub-cutaneously in the flank. […] Both drugs were dissolved in 10% cremophor EL/10% ethanol/80% saline. Tumor volume was estimated from tumor width and length. […] (FIG. 2)"}, "[2]": {"system": "mouse lung tumor line M (Madison) 109", "assay": "Taxoprexin and paclitaxel against M 109 lung carcinoma in mice, treatment from day 4 (tumor about 30 mg)", "conditions": "days 4 through 8, tumor about 30 mg at start", "procedure": "Syngeneic mice were injected with mouse lung tumor line M (Madison) 109 sub-cutaneously in the flank. […] Both drugs were dissolved in 10% cremophor EL/10% ethanol/80% saline. Tumor volume was estimated from tumor width and length. […] (FIG. 1)"}, "[3]": {"system": "human HCT colon tumor", "assay": "Cure of human HCT colon tumor in mice", "conditions": "HCT is a paclitaxel resistant tumor"}, "[4]": {"assay": "Plasma and tumor concentrations of paclitaxel in mice bearing M 109 or M 5076 tumors", "conditions": "for time for which levels of paclitaxel in tumors remain stable: tumors treated with the named drug", "procedure": "The drug was dissolved in 10% cremophor EL/10% ethanol/80% saline. Mice were sacrificed and tumors immediately excised as a function of time after injecting the drug. Tumor tissue was homogenized and paclitaxel extracted. […] Blood was collected at the same time intervals and the amount of paclitaxel determined. […] Each data point is the mean of three measurements (n=3); the error bar is one standard deviation."}, "[5]": {"system": "human NCI-H522 lung tumor", "assay": "Response of human NCI-H522 lung tumor in nude mice", "conditions": "day 15 to 19 after implantation", "procedure": "The tumors were implanted sub-cutaneously. Tumor mass was determined by calculation from tumor length and width. The drugs were dissolved in 12.5% cremophor EL/12.5% ethanol/75% saline and delivered i.v. into the tail vein, once a day for 5 days, from day 15 to 19 after tumor implantation. […] (FIG. 3)"}, "[6]": {"assay": "Dose comparisons (MTD) of taxoprexin and paclitaxel in various species", "conditions": "mice, rats and dogs", "source_text": "Calculation of MTD in animals may be based on a number of physiological parameters, such as death, particular toxicities, drug induced weight loss. Using death as an endpoint, the MTD may be the dose given test animals in which each member of the test group survived. Using toxicity as an endpoint, the MTD may be the dose at which moderate but not severe toxicity is observed. Using weight loss as an endpoint, the MTD may be the dose above which a certain percent change in body weight is induced."}, "[7]": {"conditions": "paclitaxel 20 mg/kg/day x 5 days i.v. bolus from day 5"}}}
{"compound": "CC(=O)O[C@H]1C(=O)[C@@]2(C)[C@H]([C@H](OC(=O)c3ccccc3)[C@]3(O)C[C@H](OC(=O)[C@H](O)[C@@H](NC(=O)c4ccccc4)c4ccccc4)C(C)=C1C3(C)C)[C@]1(OC(C)=O)CO[C@@H]1C[C@@H]2O", "note": "[paclitaxel, reference compound]", "values": [{"measurement": "LCK", "setting": "[1]; [7]", "result": 1.0}, {"measurement": "retarded tumor growth (duration)", "setting": "[1]; [7]", "result": "about four days"}, {"measurement": "retarded tumor growth (duration)", "setting": "[2]; paclitaxel 20 mg/kg/day x 5 days i.v. bolus", "result": "about four days"}, {"measurement": "mice cured of tumor", "setting": "[3]", "result": "0/8"}, {"measurement": "t½ in tumor", "setting": "[4]; paclitaxel in the same tumor system", "result": "< 8", "unit": "h"}, {"measurement": "time for which levels of paclitaxel in tumors remain stable", "setting": "[4]", "result": "less than 8 hours"}, {"measurement": "mice with all measurable tumors eliminated", "setting": "[5]; 20 mg/kg/day x 5 days i.v.", "result": "10/10"}]}
{"compound": "CC/C=C\\C/C=C\\C/C=C\\C/C=C\\C/C=C\\C/C=C\\CCC(=O)O[C@@H](C(=O)O[C@H]1C[C@@]2(O)[C@@H](OC(=O)c3ccccc3)[C@@H]3[C@]4(OC(C)=O)CO[C@@H]4C[C@H](O)[C@@]3(C)C(=O)[C@H](OC(C)=O)C(=C1C)C2(C)C)[C@@H](NC(=O)c1ccccc1)c1ccccc1", "note": "[taxoprexin]", "values": [{"measurement": "toxicity compared with paclitaxel", "setting": "[6]", "result": "less toxic"}, {"measurement": "mice with all measurable tumors completely eliminated", "setting": "[1]; taxoprexin 80 mg/kg/day x 5 days i.v. bolus from day 5", "result": "four out of seven"}, {"measurement": "mice with all measurable tumors completely eliminated (C/T)", "setting": "[1]; taxoprexin 120 mg/kg/day x 5 days i.v. bolus from day 5", "result": "7/8"}, {"measurement": "mice with all measurable tumors completely eliminated", "setting": "[2]; taxoprexin 120 mg/kg/day x 5 days i.v. bolus", "result": "eight out of eight"}, {"measurement": "mice cured of tumor", "setting": "[3]", "result": "3/8"}, {"measurement": "plasma concentration of paclitaxel derived from taxoprexin", "setting": "[4]; after 24 hours, i.v. bolus 50 mg/kg taxoprexin", "result": 70, "unit": "nM"}, {"measurement": "tumor concentration of paclitaxel derived from taxoprexin", "setting": "[4]; after 24 hours, i.v. bolus 50 mg/kg taxoprexin, M109 or M5076 tumors", "result": "about 3 μM"}, {"measurement": "time for which levels of paclitaxel in tumors remain stable", "setting": "[4]", "result": 24, "unit": "h"}, {"measurement": "mice with all measurable tumors eliminated", "setting": "[5]; 50 mg/kg/day x 5 days i.v.", "result": "10/10"}]}
